In brackets after ≈: the same amount, converted by molar mass.
Key:
[1] = tested on: S. aureus 16207; experiment: Antibacterial MIC, broth microdilution, S. aureus; format: cell-based, Staphylococcus aureus; details: Staphylococcus aureus, 16207; Gram-positive; 24 h incubation; highest concentration tested 32 µM
Procedure: (§1) The MIC was determined using the broth microdilution method. Mueller Hinton (MH) broth base was prepared in milli-Q water, then autoclaved at 120 °C for 1 h before allowing it to cool to room temperature. A single colony of each bacterial strain (E. coli DH5α and S. aureus 16207) was inoculated in MHB and incubated at 37 °C overnight. Overnight cultures were adjusted to 10^6 CFU/mL in MHB according to the McFarland Standard,100 μL of which was further diluted to a total of 10 mL in the media. The stock solutions of the compounds were prepared at 12.8 mM in purified DMSO. The stock solutions were further diluted in milli-Q water to 64 μM in 0.5% DMSO for testing against S. aureus, and 256 μM in 2% DMSO for testing against E. coli. Compounds that were not soluble in these solvent mixtures were further diluted in half to get clear solutions for the bioassay. DMSO is known to have weak antibacterial activity. To exclude the antibacterial effect of DMSO from the results, a solution of 2% DMSO in milli-Q water was used as an additional control in the experiments. The compounds and three controls (the natural product pseudoceratidine 1 for both strains, streptomycin for S. aureus, and polymyxin B for E. coli) then underwent a dilution series. The assay was performed by adding 50 μL of each compound solution at the different concentrations and 50 μL of the diluted bacterial culture to the different wells of a 96-well microtiter plate. The experiments were performed at least thrice and in triplicates. MIC after 24 h of incubation was determined by both visual inspection and absorbance at 600 nm using an EnSpire Multimode plate reader.

[2] = tested on: E. coli DH5α; experiment: Antibacterial MIC, broth microdilution, E. coli; format: cell-based, Escherichia coli; details: Gram-negative, 24 h incubation, highest concentration tested 128 µM, † lower starting concentration due to insolubility; for MIC: Escherichia coli
Procedure: as §1

Compound | MIC [1] | MIC [2] | melting point | MIC E. Coli [2]
O=C(NCCCNCCNC(=O)c1cc(Cl)c[nH]1)c1cc(Cl)c[nH]1 [Compound 16b] | > 32 µM | > 128 µM | 167 to 169 °C | 
O=C(NCCCNCCCCNCCCNC(=O)c1ccc[nH]1)c1ccc[nH]1 [Compound 19a] | > 32 µM | > 128 µM | 175 to 176 °C | 
O=C(NCCNCCNC(=O)c1cc(Cl)c[nH]1)c1cc(Cl)c[nH]1 [Compound 13b] | > 32 µM | > 128 µM | 199 to 201 °C | 
O=C(NCCNCCNC(=O)c1cc(Br)c[nH]1)c1cc(Br)c[nH]1 [Compound 13d] | > 32 µM | > 128 µM | 201 to 203 °C | 
CC(C)(C)OC(=O)NCCCNC(=O)c1cc(Cl)c(Cl)[nH]1 [Compound 28c] | > 32 µM | > 128 µM | 158 to 160 °C | 
O=C(NCCCNCCCNC(=O)c1cc(Cl)c[nH]1)c1cc(Cl)c[nH]1 [Compound 14b] | > 32 µM | > 128 µM | 78 to 80 °C | 
NCCNCCCNC(=O)c1cc(Br)c[nH]1 [Compound 22] | > 32 µM | > 128 µM |  | 
O=C(NCCCNCCCNC(=O)c1cc(I)c[nH]1)c1cc(I)c[nH]1 [Compound 14f] | > 32 µM | > 128 µM | 93 to 95 °C | 
O=C(NCCCCNCCCNC(=O)c1cc(I)c[nH]1)c1cc(I)c[nH]1 [Compound 17f] | > 32 µM | > 128 µM | 89 to 90 °C | 
CC(C)(C)OC(=O)NCCCNC(=O)c1cc(I)c[nH]1 [Compound 28f] | > 32 µM | > 128 µM | 128 to 130 °C | 
O=C(NCCCNCCCNCCCNC(=O)c1cc(Br)c[nH]1)c1cc(Br)c[nH]1 [Compound 18d] | 16 to 32 µM (≈ 8.52 to 17 µg/mL) | 64 to 128 µM (≈ 34.1 to 68.1 µg/mL) |  | 
CN(C)CCCNC(=O)c1cc(Br)c[nH]1 [Compound 27d] | > 32 µM | > 128 µM |  | 
O=C(NCCCNCCCNC(=O)c1cc(Br)c[nH]1)c1cc(Br)c[nH]1 [Compound 14d] | > 32 µM | > 128 µM | 73 to 75 °C | 
O=C(NCCCNCCCCNCCCNC(=O)c1cc(I)c[nH]1)c1cc(I)c[nH]1 [Compound 19f] | 16 to 32 µM (≈ 10.2 to 20.5 µg/mL) | > 128 µM | 173 to 175 °C | 
CC(C)(C)OC(=O)NCCCNC(=O)c1cc(Cl)c[nH]1 [Compound 28b] | > 32 µM | > 128 µM |  | 
CN(C)CCCNC(=O)c1cc(I)c[nH]1 [Compound 27f] | > 32 µM | > 128 µM | 169 to 171 °C | 
O=C(NCCCNCCCCNCCCNC(=O)c1cc(Cl)c[nH]1)c1cc(Cl)c[nH]1 [Compound 19b] | > 32 µM | > 128 µM | 194 to 195 °C | 
O=C(NCCNCCNC(=O)c1cc(Cl)c(Cl)[nH]1)c1cc(Cl)c(Cl)[nH]1 [Compound 13c] | > 32 µM | > 64 µM | > 230 °C | 
O=C(NCCCNCCCNC(=O)c1ccc[nH]1)c1ccc[nH]1 [Compound 14a] | > 32 µM | > 128 µM | 165 to 166 °C | 
CN(C)CCCNC(=O)c1cc(Cl)c(Cl)[nH]1 [Compound 27c] | > 32 µM | > 128 µM |  | 
CC(C)(C)OC(=O)NCCCNC(=O)c1cc(Br)c[nH]1 [Compound 28d] | > 32 µM | > 128 µM |  | 
O=C(NCCCNCCNC(=O)c1cc(Br)c[nH]1)c1cc(Br)c[nH]1 [Compound 16d] | > 32 µM | > 128 µM | 188 to 190 °C | 
CN(C)CCCNC(=O)c1cc(Br)c(Br)[nH]1 [Compound 27e] | > 32 µM | > 128 µM |  | 
polymyxin B [reference compound] |  |  |  | 0.3 to 0.6 µM
[H]/N=C(/N)N[C@H]1[C@H](O)[C@@H](O)[C@H](O[C@@H]2O[C@@H](C)[C@](O)(C=O)[C@H]2O[C@@H]2O[C@@H](CO)[C@H](O)[C@@H](O)[C@@H]2NC)[C@@H](N/C(N)=N\[H])[C@@H]1O [Streptomycin, streptomycin, reference compound] | 0.625 to 1.25 µM (≈ 0.363 to 0.727 µg/mL) |  |  | 
NCCNCCNC(=O)c1ccc[nH]1 [Compound 20] | > 32 µM | > 128 µM |  | 
O=C(NCCCCCCNCCCCCCNC(=O)c1cc(Br)c[nH]1)c1cc(Br)c[nH]1 [Compound 15d] | > 32 µM | > 64 µM | 178 to 180 °C | 
CN(C)CCCNC(=O)c1ccc[nH]1 [Compound 27a] | > 32 µM | > 128 µM |  | 

Compound | MIC [1] | MIC [2] | melting point | MIC E. Coli [2]
O=C(NCCNCCNC(=O)c1cc(I)c[nH]1)c1cc(I)c[nH]1 [Compound 13f] | > 32 µM | > 64 µM | 193 to 195 °C | 
NCCNCCCNC(=O)c1cc(Br)c(Br)[nH]1 [Compound 24] | > 32 µM | > 128 µM |  | 
NCCCNCCNC(=O)c1cc(Br)c(Br)[nH]1 [Compound 23] | > 32 µM | > 128 µM |  | 
O=C(NCCCCNC(=O)c1cc(Cl)c(Cl)[nH]1)c1cc(Cl)c(Cl)[nH]1 [Compound 12c] | > 32 µM | > 64 µM | > 230 °C | 
NCCCNCCNC(=O)c1cc(Br)c[nH]1 [Compound 21] | > 32 µM | > 128 µM |  | 
O=C(NCCCCNCCCNC(=O)c1cc(Cl)c(Cl)[nH]1)c1cc(Cl)c(Cl)[nH]1 [Compound 17c] | > 32 µM | 128 to 256 µM (≈ 60.1 to 120 µg/mL) |  | 
O=C(NCCCNCCNC(=O)c1cc(I)c[nH]1)c1cc(I)c[nH]1 [Compound 16f] | > 32 µM | > 128 µM | 178 to 180 °C | 
CC(C)(C)OC(=O)NCCCNC(=O)c1ccc[nH]1 [Compound 28a] | > 32 µM | > 128 µM | 90 to 91 °C | 
O=C(NCCCCNC(=O)c1cc(Br)c(Br)[nH]1)c1cc(Br)c(Br)[nH]1 [Compound 12e] | > 32 µM | > 64 µM | > 230 °C | 
O=C(NCCCCNCCCNC(=O)c1cc(Br)c[nH]1)c1cc(Br)c[nH]1 [Compound 17d] | > 32 µM | > 128 µM |  | 
O=C(NCCCCNC(=O)c1cc(I)c[nH]1)c1cc(I)c[nH]1 [Compound 12f] | > 32 µM | > 64 µM |  | 
O=C(NCCCCCCNCCCCCCNC(=O)c1cc(I)c[nH]1)c1cc(I)c[nH]1 [Compound 15f] | > 32 µM | > 64 µM | 174 to 176 °C | 
O=C(NCCCNCCCNCCCNC(=O)c1cc(Cl)c[nH]1)c1cc(Cl)c[nH]1 [Compound 18b] | > 32 µM | 64 to 128 µM (≈ 28.4 to 56.8 µg/mL) |  | 
CC(C)(C)OC(=O)NCCCNC(=O)c1cc(Br)c(Br)[nH]1 [Compound 28e] | > 32 µM | > 128 µM |  | 
O=C(NCCCCNCCCNC(=O)c1ccc[nH]1)c1ccc[nH]1 [Compound 17a] | > 32 µM | > 128 µM |  | 
O=C(NCCNCCNC(=O)c1ccc[nH]1)c1ccc[nH]1 [Compound 13a] | > 32 µM | > 128 µM | 191 to 193 °C | 
O=C(NCCCNCCCNCCCNC(=O)c1cc(I)c[nH]1)c1cc(I)c[nH]1 [Compound 18f] | 16 to 32 µM (≈ 10 to 20 µg/mL) | 64 to 128 µM (≈ 40.1 to 80.2 µg/mL) | 78 to 80 °C | 
O=C(NCCCNCCCNCCCNC(=O)c1ccc[nH]1)c1ccc[nH]1 [Compound 18a] | > 32 µM | > 128 µM |  | 
O=C(NCCNCCNC(=O)c1cc(Br)c(Br)[nH]1)c1cc(Br)c(Br)[nH]1 [Compound 13e] | > 32 µM | > 64 µM | > 230 °C | 
O=C(NCCCNCCCCNCCCNC(=O)c1cc(Br)c[nH]1)c1cc(Br)c[nH]1 [Compound 19d] | 16 to 32 µM (≈ 8.74 to 17.5 µg/mL) | 64 to 128 µM (≈ 35 to 69.9 µg/mL) | 173 to 175 °C | 
O=C(NCCCCCCNCCCCCCNC(=O)c1ccc[nH]1)c1ccc[nH]1 [Compound 15a] | > 32 µM | > 128 µM | 129 to 131 °C | 
O=C(NCCCCNC(=O)c1ccc[nH]1)c1ccc[nH]1 [Compound 12a] | > 32 µM | > 128 µM | 215 to 216 °C | 
O=C(NCCCCNCCCNC(=O)c1cc(Cl)c[nH]1)c1cc(Cl)c[nH]1 [Compound 17b] | > 32 µM | > 128 µM | 80 to 81 °C | 
CN(C)CCCNC(=O)c1cc(Cl)c[nH]1 [Compound 27b] | > 32 µM | > 128 µM |  | 
O=C(NCCCCCCNCCCCCCNC(=O)c1cc(Cl)c[nH]1)c1cc(Cl)c[nH]1 [Compound 15b] | > 32 µM | > 128 µM | 106 to 108 °C | 
O=C(NCCCCNC(=O)c1cc(Br)c[nH]1)c1cc(Br)c[nH]1 [Compound 12d] | > 32 µM | > 64 µM | > 230 °C | 
O=C(NCCCNCCNC(=O)c1ccc[nH]1)c1ccc[nH]1 [Compound 16a] | > 32 µM | > 128 µM | 69 to 71 °C | 
